Measured values reported in patent US4842847A, “Dental calculus inhibiting compositions” (The B. F. Goodrich Company, priority 1987, dated 1989).
Read-outs that look alike come from different tables or passages of the source.

Settings: pyrophosphate 25 ppm; for Time of Crystal Growth Inhibition: no anticalculus agent, pH 7.20, 25° C.
Method: The in vitro formation of hydroxyapatite (HAP) was measured titrimetrically using the pH - stat method described in Example I, above.
The pyrophosphate was used at the level of 25 ppm.

effectiveness of pyrophosphate when incubated with enzyme (in words) (absence of anticalculus agent polymer, with enzyme): drastically reduced
SMILES: O=P(O)(O)OP(=O)(O)O [pyrophosphate]
Time of Crystal Growth Inhibition (pyrophosphatase No): 30 min
Time of Crystal Growth Inhibition (pyrophosphatase Yes): 11 min
delay of HAP formation (in words) (no enzyme): significantly delays HAP forma;tion
